# Laboratory results: patent US20150344540A1, “NOVEL GLP-1 RECEPTOR AGONISTS WITH CHOLESTEROL EFFLUX ACTIVITY” (NOVO NORDISK A/S, priority 2012, published 2015)
# Read-outs that look alike come from different tables or passages of the source. Where a SMILES comes first, the peptide text is derived from it. [ ]: non-standard residue; d: D form. Aib = CC(C)(N)C(=O)O
# What was measured:
# human GLP-1 receptor [1] = molecular target: human GLP-1 receptor (human, UniProt P43220)
# [2] = tested on: Mouse monocyte/macrophage cell line, RAW 264.7; assay: Cholesterol efflux assay (3H-cholesterol, macrophage cell line); assay type: cell-based; conditions: RAW 264.7, 4 hrs incubation, 0.1% human serum albumin, ABCA1-mediated efflux
# human GLP-1 receptor [3] = molecular target: T1, human GLP-1 receptor (Homo sapiens, UniProt P43220); assay: Functional GLP-1 receptor assay, in vitro potency (CRE luciferase; whole cells); assay type: cell-based; conditions: BHK cells expressing human GLP-1 receptor
# Target sequence in this assay (P43220 24-463): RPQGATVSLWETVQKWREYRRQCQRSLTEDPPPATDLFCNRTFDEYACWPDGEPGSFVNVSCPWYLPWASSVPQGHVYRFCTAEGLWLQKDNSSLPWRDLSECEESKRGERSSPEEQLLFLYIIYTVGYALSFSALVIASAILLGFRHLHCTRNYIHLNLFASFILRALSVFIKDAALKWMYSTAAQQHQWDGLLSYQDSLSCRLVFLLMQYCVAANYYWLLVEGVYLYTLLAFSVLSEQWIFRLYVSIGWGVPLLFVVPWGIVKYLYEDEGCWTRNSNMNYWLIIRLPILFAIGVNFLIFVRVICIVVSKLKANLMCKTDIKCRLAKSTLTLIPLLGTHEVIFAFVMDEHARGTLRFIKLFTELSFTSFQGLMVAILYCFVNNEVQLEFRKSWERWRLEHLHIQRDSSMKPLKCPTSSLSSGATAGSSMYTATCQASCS
# [4] = Pharmacokinetics in normal mice after i.v. and s.c. administration; assay type: in vivo, female C57B1/6J mice
# Protocol: The mice, 60 female C57B1/6J were purchased from Taconic, arriving at Novo Nordisk A/S Animal Unit at 6-7 weeks of age. The mice were housed according to standard rules in the animal unit and given free access to standard chow and tap water. The animals were kept at a room temperature and housed in groups of 8 mice, with free access to food and water, according to Animal Unit's SOP (Housing of experimental animals at Novo Nordisk A/S).
# Peptide is administered as a single dose either s.c. or i.v.
# After the 2nd sample the mice were sacrificed. The plasma concentrations of the compounds with intact N-terminus were determined using a Luminescence Oxygen Chanelling Immuno-assay (LOCI). The donor beads were coated with streptavidin, while acceptor beads were conjugated with a monoclonal antibody recognizing a mid-/C-terminal epitope of the peptide. The other monoclonal antibody, specific for the N-terminus, was biotinylated. The three reactants were combined with the analyte and formed a two-sited immuno-complex. Illumination of the complex released singlet oxygen atoms from the donor beads, which were channeled into the acceptor beads and triggered chemiluminescence which was measured in an Envision plate reader. The amount of light was proportional to the concentration of the compound.
# [5] = Pharmacokinetics in mini-pigs after i.v. administration; conditions: female, Göttingen, minipig, plasma, iv, 5 nmol/kg
# Method in brief: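 Female Göttingen mini-pigs (15-20 kg, N=3) received 5 nmol/kg i.v. via central venous catheter. Plasma levels of N-terminally intact peptide measured by LOCI immunoassay with N-terminal and mid-/C-terminal antibodies; non-compartmental analysis of individual profiles.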
# human GLP-1 receptor [6] = molecular target: T1, human GLP-1 receptor
# [7] = GLP1R CRE luc 1% HSA EC50 Mean Value, 1% HSA
# [8] = female, C57B1/6J, mouse, plasma, sc
# [9] = mice, s.c., Compound 1 dose 323 nmol/kg, Compound 5 dose 62 nmol/kg
# [10] = T1/2 Mean Value, Göttingen mini-pigs, N=3
compound,measurement,setting,value
"[Aib2,His3,Glu15,Glu16,Glu17,Ala18,Lys20,Glu21,Ile23,Ala24,Leu27,Glu28,Lys29]-Glucagonyl-(1-29)-Aib-Lys-Glu-Phe-Leu amide (peptide)","CRE luciferase EC50, 0% HSA",human GLP-1 receptor [1],80 pM
same,"CRE luciferase EC50, 1% HSA",human GLP-1 receptor [1],49 pM
"[Glu15,Glu16,Lys17,Lys18,Lys20,Glu21,Ile23,Ala24,Leu27,Glu28,Lys29]-Glucagonyl-(1-29)-Aib-Lys-Glu-Phe-Leu amide (peptide)","CRE luciferase EC50, 0% HSA",human GLP-1 receptor [1],1170 pM
same,"CRE luciferase EC50, 1% HSA",human GLP-1 receptor [1],588 pM
"CC[C@H](C)[C@H](NC(=O)[C@H](Cc1ccccc1)NC(=O)[C@H](CCC(=O)O)NC(=O)[C@H](CCCCN)NC(=O)[C@@H](NC(=O)[C@H](C)NC(=O)[C@H](CCC(=O)O)NC(=O)CNC(=O)[C@H](CCC(=O)O)NC(=O)[C@H](CC(C)C)NC(=O)[C@H](Cc1ccc(O)cc1)NC(=O)[C@H](CO)NC(=O)[C@H](CO)NC(=O)[C@@H](NC(=O)[C@H](CC(=O)O)NC(=O)[C@H](CO)NC(=O)[C@@H](NC(=O)[C@H](Cc1ccccc1)NC(=O)[C@@H](NC(=O)CNC(=O)[C@H](CCC(=O)O)NC(=O)C(C)(C)NC(=O)[C@@H](N)Cc1c[nH]cn1)[C@@H](C)O)[C@@H](C)O)C(C)C)C(C)C)C(=O)N[C@@H](C)C(=O)N[C@@H](Cc1c[nH]c2ccccc12)C(=O)N[C@@H](CC(C)C)C(=O)N[C@H](C(=O)N[C@@H](CCC(=O)O)C(=O)N[C@@H](CCCCN)C(=O)N[C@H](C(=O)N[C@@H](CCCCN)C(=O)N[C@@H](CCC(=O)O)C(=O)N[C@@H](Cc1c[nH]cn1)C(=O)N[C@@H](CC(C)C)C(N)=O)C(C)C)C(C)C [Compound 5, [Aib8,Glu23,Val25,Glu34,Lys35,Val36,Lys37]-GLP-1-(7-37)-peptidyl-Glu-His-Leu amide] (H-H[Aib]EGTFTSDVSSYLEGEAVKEFIAWLVEKVKEHL-NH2)",4 h Cholesterol Efflux Emax,[2],111%
same,EC50,human GLP-1 receptor [3]; [7],116 pM
same,half-life,"[4]; female, C57B1/6J, mouse, plasma, iv",5.9 h
same,Vd,"[4]; female, C57B1/6J, mouse, plasma, iv, read-out: Volume of distribution",0.048 L/kg
same,Tmax,[4]; [8],4 h
same,half-life,[4]; [8],9.7 h
same,clearance,"[4]; mice, i.v., Compound 1 dose 99 nmol/kg, Compound 5 dose 135 nmol/kg",5.6 mL/h/kg
same,Volume of distribution,[4]; [9],0.1164 L/kg
same,clearance,[4]; [9],8.298 mL/h/kg
same,C0,[5],63.3 nM
same,Vd,[5],0.128 L/kg
same,clearance,[5],3.87 mL/h/kg
same,half-life,"[5]; T1/2, mini-pigs",23 h
same,half-life,[5]; [10],23 h
Exendin-4(1-39) (ligand),"CRE luciferase EC50, 0% HSA",human GLP-1 receptor [6],5 pM
same,"CRE luciferase EC50, 1% HSA",human GLP-1 receptor [6],4 pM
"[Aib2,Lys17,Ala18,Arg20,Glu21,Leu27,Glu28,Lys29]-Glucagonyl-(1-29)-Aib-Lys-Glu-Phe-Leu amide (peptide)","CRE luciferase EC50, 0% HSA",human GLP-1 receptor [1],393 pM
same,"CRE luciferase EC50, 1% HSA",human GLP-1 receptor [1],153 pM
"[Aib2,Gly16,Lys17,Arg20,Glu21,Leu27,Glu28,Lys29]-Glucagonyl-(1-29)-Aib-Lys-Glu-Phe-Leu amide (peptide)","CRE luciferase EC50, 0% HSA",human GLP-1 receptor [1],591 pM
same,"CRE luciferase EC50, 1% HSA",human GLP-1 receptor [1],297 pM
"[Aib2,Gly16,Lys17,Ala18,Arg20,Glu21,Leu27,Glu28,Lys29]-Glucagonyl-(1-29)-Aib-Lys-Glu-Phe-Leu amide (peptide)","CRE luciferase EC50, 0% HSA",human GLP-1 receptor [1],1630 pM
same,"CRE luciferase EC50, 1% HSA",human GLP-1 receptor [1],908 pM
"[Glu15,Glu16,Lys17,Ala18,Lys20,Glu21,Ile23,Ala24,Leu27,Glu28,Lys29]-Glucagonyl-(1-29)-Aib-Lys-Glu-Phe-Leu amide (peptide)","CRE luciferase EC50, 0% HSA",human GLP-1 receptor [1],86 pM
same,"CRE luciferase EC50, 1% HSA",human GLP-1 receptor [1],44 pM
"[Glu15,Glu16,Gln17,Ala18,Lys20,Glu21,Ile23,Ala24,Leu27,Glu28,Lys29]-Glucagonyl-(1-29)-Aib-Lys-Glu-Phe-Leu amide (peptide)","CRE luciferase EC50, 0% HSA",human GLP-1 receptor [1],118 pM
same,"CRE luciferase EC50, 1% HSA",human GLP-1 receptor [1],61 pM
"CC[C@H](C)[C@H](NC(=O)[C@H](Cc1ccccc1)NC(=O)[C@H](CCC(=O)O)NC(=O)[C@H](CCCCN)NC(=O)[C@@H](NC(=O)[C@H](C)NC(=O)[C@H](CCC(=O)O)NC(=O)CNC(=O)[C@H](CCC(=O)O)NC(=O)[C@H](CC(C)C)NC(=O)[C@H](Cc1ccc(O)cc1)NC(=O)[C@H](CO)NC(=O)[C@H](CO)NC(=O)[C@@H](NC(=O)[C@H](CC(=O)O)NC(=O)[C@H](CO)NC(=O)[C@@H](NC(=O)[C@H](Cc1ccccc1)NC(=O)[C@@H](NC(=O)CNC(=O)[C@H](CCC(=O)O)NC(=O)C(C)(C)NC(=O)[C@@H](N)Cc1c[nH]cn1)[C@@H](C)O)[C@@H](C)O)C(C)C)C(C)C)C(=O)N[C@@H](CCC(N)=O)C(=O)N[C@@H](Cc1c[nH]cn1)C(=O)N[C@@H](CC(C)C)C(=O)N[C@H](C(=O)N[C@@H](CCC(=O)O)C(=O)N[C@@H](CCCCN)C(=O)N[C@@H](CC(C)C)C(=O)N[C@@H](CCCCN)C(=O)N[C@@H](CCC(=O)O)C(=O)N[C@@H](Cc1ccccc1)C(=O)N[C@@H](CC(C)C)C(N)=O)C(C)C [Compound 87, [Aib8,Glu23,Val25,Gln30,His31,Glu34,Lys35,Leu36,Lys37]-GLP-1-(7-37)-peptidyl-Glu-Phe-Leu amide] (H-H[Aib]EGTFTSDVSSYLEGEAVKEFIQHLVEKLKEFL-NH2)",4 h Cholesterol Efflux Emax,[2],121%
same,EC50,"human GLP-1 receptor [3]; 0% HSA, read-out: GLP1R CRE luc 0% HSA EC50 Mean Value",77 pM
same,EC50,human GLP-1 receptor [3]; [7],25 pM
same,C0,[5],155 nM
same,Vd,[5],0.0958 L/kg
same,clearance,[5],3.47 mL/h/kg
same,half-life,[5]; [10],19 h
"[Lys17,Ala18,Arg20,Glu21,Leu27,Glu28,Lys29]-Glucagonyl-(1-29)-Aib-Lys-Glu-Phe-Leu amide (peptide)","CRE luciferase EC50, 0% HSA",human GLP-1 receptor [1],434 pM
same,"CRE luciferase EC50, 1% HSA",human GLP-1 receptor [1],198 pM
